Laboratory results as given in publication PMC6317804, “The integration of pharmacophore-based 3D QSAR modeling and virtual screening in safety profiling: A case study to identify antagonistic activities against adenosine receptor, A2A, using 1,897 known drugs” (PLoS ONE, 2019).
Where “and” joins values, the source holds several entries; their conditions need not be identical. Equal entries are not always repeated.

Assays:
[1] = target: T1, adenosine receptor 2A (A2A) (Homo sapiens, UniProt P29274); assay: Functional antagonist assay monitoring cAMP (CEREP); type: cell-based;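 as to IC50, cAMP, M: eight-point concentration-response from 0 to 10 µM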
T1 construct: CEREP (Poitiers, France), paid service
T1 sequence (P29274 whole entry): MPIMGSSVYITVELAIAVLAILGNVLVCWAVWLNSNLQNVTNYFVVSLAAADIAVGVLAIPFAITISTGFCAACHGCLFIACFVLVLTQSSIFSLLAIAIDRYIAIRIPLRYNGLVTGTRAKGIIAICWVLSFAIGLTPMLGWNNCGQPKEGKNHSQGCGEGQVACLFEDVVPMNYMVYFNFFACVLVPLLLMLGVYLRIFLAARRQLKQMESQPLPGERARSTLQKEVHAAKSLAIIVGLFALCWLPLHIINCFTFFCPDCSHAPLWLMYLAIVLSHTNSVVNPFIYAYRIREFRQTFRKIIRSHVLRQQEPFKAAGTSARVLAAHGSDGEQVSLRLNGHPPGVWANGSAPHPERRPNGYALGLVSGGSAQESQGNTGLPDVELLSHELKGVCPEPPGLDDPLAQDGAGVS
Method: (§1) Competition binding assay using radioactive ligands and functional assay monitoring cAMP were carried out as a paid service provided by CEREP (Poitiers, France). The functional assays monitoring Ca^2+ flux were carried out as a paid service provided by DiscoveRx (Carlsbad, CA).

[2] = target: T1, adenosine receptor 2A (A2A); assay: Competition binding assay using radioactive ligands (CEREP); parameters: inhibition: dose or concentration left out as unconfirmed; details: for inhibition at 10 µM: fixed compound concentration of 10 μM;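 as to all read-outs here: compounds screened at a single fixed 10 µM concentration for displacement of a radioligand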
Method: as §1

[3] = target: T1, adenosine receptor 2A (A2A); assay: Functional assay monitoring Ca2+ flux (DiscoveRx); type: cell-based; parameters: inhibition: dose or concentration left out as unconfirmed; details: for inhibition: read-out: IC50, Ca2+, M; for inhibition at up to 10 µM: read-out: IC50, Ca2+
Method: as §1

A2A = details: cited from earlier work
[4] = concentration-response up to 10 μM, read-out: IC50, cAMP
[5] = concentration-response up to 10 μM

| Compound | inhibition at up to 10 µM [1, 4] [%] | inhibition at 10 µM [2] [%] | inhibition [3] [%] | other results |
| --- | --- | --- | --- | --- |
| CC1=C(C(=O)O)N2C(=O)[C@@H](NC(=O)[C@H](N)c3ccccc3)[C@H]2SC1 [Cephalexin] | < 50 | < 50 | < 50 | – |
| C#C[C@]1(O)CC[C@H]2[C@@H]3CCC4=CCCC[C@@H]4[C@H]3C(=C)C[C@@]21CC [Desogestrel] | < 50 | < 50 | < 50 | – |
| COc1ccc([C@@H]2Sc3ccccc3N(CCN(C)C)C(=O)[C@@H]2OC(C)=O)cc1 [Diltiazem] | < 50 | < 50 | < 50 | – |
| COc1cccc2c1C(=O)c1c(O)c3c(c(O)c1C2=O)C[C@@](O)(C(=O)CO)C[C@@H]3O[C@H]1C[C@H](N)[C@H](O)[C@H](C)O1 [Doxorubicin] | < 50 | < 50 | – | IC50 [3, 5]: 2.5 µM |
| C[C@@H](O)[C@H]1C(=O)N2C(C(=O)O)=C(S[C@@H]3CN[C@H](C(=O)Nc4cccc(C(=O)O)c4)C3)[C@H](C)[C@H]12 [Ertapenem] | < 50 | < 50 | < 50 | – |
| Cc1cc(C#N)cc(C)c1Oc1nc(Nc2ccc(C#N)cc2)nc(N)c1Br [Etravirine] | < 50 | < 50 | – | inhibition at up to 10 µM [3, 5]: < 50% |
| O=C(/C=C/c1c(-c2ccccc2)nn2ccccc12)N1CCCC[C@@H]1CCO [FK453] | – | – | – | IC50 (A2A): 1.58 µM |
| NC(N)=Nc1nc(CSCCC(N)=NS(N)(=O)=O)cs1 [Famotidine] | – | < 50 | < 50 | inhibition [1, 4]: < 50% |
| NC(=O)OCC(COC(N)=O)c1ccccc1 [Felbamate] | < 50 | < 50 | < 50 | – |
| Cc1onc(-c2c(F)cccc2Cl)c1C(=O)N[C@@H]1C(=O)N2[C@@H]1SC(C)(C)[C@@H]2C(=O)O [Flucloxacillin] | < 50 | < 50 | < 50 | – |
| NCC1(CC(=O)O)CCCCC1 [Gabapentin] | – | – | < 50 | inhibition ([1]; read-out: IC50, cAMP, M): < 50%; inhibition ([2]; read-out: %inhibition, binding): < 50% |
| CCC1=C(C)CN(C(=O)NCCc2ccc(S(=O)(=O)NC(=O)N[C@H]3CC[C@H](C)CC3)cc2)C1=O [Glimepiride] | < 50 | < 50 | – | inhibition at up to 10 µM [3, 5]: < 50% |
| COc1ccc2c(c1)C(=O)N(CCc1ccc(S(=O)(=O)NC(=O)NC3CCCCC3)cc1)C(=O)C2(C)C [Gliquidone] | < 50 | < 50 | < 50 | – |
| CC(C)[N+]1(C)[C@@H]2CC[C@H]1C[C@@H](OC(=O)C(CO)c1ccccc1)C2 (some centres unmarked) [Ipratropium bromide] | – | < 50 | – | IC50, cAMP, M [1, 5]: N.E. (N.E., no effects. Results showing an inhibition or stimulation lower than 50% are considered to represent insignificant effects of the test compounds.); IC50, Ca2+, M [3, 5]: N.E. (N.E., no effects. Results showing an inhibition or stimulation lower than 50% are considered to represent insignificant effects of the test compounds.) |
| COC(=O)C1=C(C)NC(C)=C(C(=O)OC(C)C)C1c1cccc2nonc12 (centres unmarked) [Isradipine] | < 50 | < 50 | < 50 | – |
| c1ccc(-c2cc(-c3ccccc3)c3nc(C4CCCCC4)[nH]c3n2)cc1 [LUF5981] | – | – | – | IC50 (A2A): 0.2 µM |
| Nc1nnc(-c2cccc(Cl)c2Cl)c(N)n1 [Lamotrigine] | < 50 | < 50 | < 50 | – |
| CCOC(=O)C1=C(C)NC(c2ccccc2)=C(C(=O)OCc2ccccc2)C1C#Cc1ccccc1 (centres unmarked) [MRS1191] | – | – | – | IC50 (A2A): ~10 µM and 10 µM |
| Nc1ccc(O)c(C(=O)O)c1 [Mesalazine] | < 50 | < 50 | – | inhibition at up to 10 µM [3, 5]: < 50% |
| COCCc1ccc(OCC(O)CNC(C)C)cc1 (centres unmarked) [Metoprolol] | < 50 | < 50 | < 50 | – |
| COc1ccc(OC)c(C(O)CNC(=O)CN)c1 (centres unmarked) [Midodrine] | < 50 | < 50 | < 50 | – |
| Cc1[nH]c(=O)c(C#N)cc1-c1ccncc1 [Milrinone] | < 50 | < 50 | < 50 | – |

| Compound | inhibition at up to 10 µM [1, 4] [%] | inhibition at 10 µM [2] [%] | inhibition [3] [%] | other results |
| --- | --- | --- | --- | --- |
| OC(CNCC(O)C1CCc2cc(F)ccc2O1)C1CCc2cc(F)ccc2O1 (centres unmarked) [Nebivolol] | < 50 | < 50 | < 50 | – |
| Cc1c(O)cccc1C(=O)N[C@@H](CSc1ccccc1)[C@H](O)CN1C[C@H]2CCCC[C@H]2C[C@H]1C(=O)NC(C)(C)C [Nelfinavir] | < 50 | < 50 | – | inhibition at up to 10 µM [3, 5]: < 50% |
| O=C1CCCC(=O)C1C(=O)c1ccc(C(F)(F)F)cc1[N+](=O)[O-] [Nitisinone] | < 50 | < 50 | – | inhibition at up to 10 µM [3, 5]: < 50% |
| NC[C@H](O)c1ccc(O)c(O)c1 [Norepinephrine] | < 50 | < 50 | < 50 | – |
| CC(=O)CCCCn1c(=O)c2c(ncn2C)n(C)c1=O [Pentoxifylline] | < 50 | < 50 | < 50 | IC50 (A2A): ~10 µM |
| CN(C)CCC(c1ccccc1)c1ccccn1 (centres unmarked) [Pheniramine] | < 50 | < 50 | – | inhibition at up to 10 µM [3, 5]: < 50% |
| Cc1ccc2c(c1)c1c3n2CCNC3CCC1 (centres unmarked) [Pirlindole] | < 50 | < 50 | – | inhibition at up to 10 µM [3, 5]: < 50% |
| O=C(Nc1cccc2c(=O)cc(-c3nnn[nH]3)oc12)c1ccc(OCCCCc2ccccc2)cc1 [Pranlukast] | < 50 | < 50 | – | IC50 [3, 5]: 0.83 µM |
| CCCNCC(O)COc1ccccc1C(=O)CCc1ccccc1 (centres unmarked) [Propafenone] | < 50 | < 50 | < 50 | – |
| Cc1ncc(CO)c(C=O)c1O [Pyridoxal] | < 50 | < 50 | < 50 | – |
| NC(=O)c1ncn([C@@H]2O[C@H](CO)[C@@H](O)[C@H]2O)n1 [Ribavirin] | < 50 | < 50 | < 50 | – |
| CN(CCOc1ccc(CC2SC(=O)NC2=O)cc1)c1ccccn1 (centres unmarked) [Rosiglitazone] | < 50 | < 50 | < 50 | – |
| C[S+](CC[C@H](N)C(=O)[O-])C[C@H]1O[C@@H](n2cnc3c(N)ncnc32)[C@H](O)[C@@H]1O (some centres unmarked) [S-Adenosyl-methionine] | < 50 | 74 | – | inhibition at up to 10 µM [3, 5]: < 50% |
| O=C(Oc1ccccc1C(=O)O)c1ccccc1O [Salsalate] | < 50 | < 50 | < 50 | – |
| CC(C)OC(=O)[C@H](C)N[P@](=O)(OC[C@H]1O[C@@H](n2ccc(=O)[nH]c2=O)[C@](C)(F)[C@@H]1O)Oc1ccccc1 [Sofosbuvir] | – | < 50 | < 50 | inhibition ([1]; read-out: IC50, cAMP, M): < 50% |
| CCN1CCCC1CNC(=O)c1cc(S(N)(=O)=O)ccc1OC (centres unmarked) [Sulpiride] | < 50 | < 50 | < 50 | – |
| CCCSc1nc(N[C@@H]2C[C@H]2c2ccc(F)c(F)c2)c2nnn([C@@H]3C[C@H](OCCO)[C@@H](O)[C@H]3O)c2n1 [Ticagrelor] | < 50 | < 50 | – | inhibition at up to 10 µM [3, 5]: < 50% |
| Nc1nc(N)c2nc(-c3ccccc3)c(N)nc2n1 [Triamterene] | < 50 | < 50 | < 50 | – |
| CC(C)[C@H](N)C(=O)OCCOCn1cnc2c(=O)[nH]c(N)nc21 [Valaciclovir] | < 50 | < 50 | < 50 | – |
| CC(C)[C@H](N)C(=O)OCC(CO)OCn1cnc2c(=O)nc(N)[nH]c21 (some centres unmarked) [Valganciclovir] | < 50 | < 50 | < 50 | – |
| Cn1c(=O)c2c(ncn2CC(O)CO)n(C)c1=O (centres unmarked) [dyphylline] | – | – | – | IC50 (A2A): ~10 µM |
